Measured values published in patent US10639296B2, “Methods to mitigate injury from radiation exposure” (priority 2009, dated 2020).
Read-outs that look alike come from different tables or passages of the source.

Tests used:
normal donors = settings: cited from earlier work
C57BL/6 mice [1] = settings: for cutaneous injury (skin reaction): 5 mg/kg I.P. twice, one week after radiation and 48 hours later
Description: We exposed the legs of mice to 25 or 30 Gy radiation at a dose rate of approximately 5 Gy per minute. Subsequently, one week later, we administered Mozobil [LP.] at 5 mg/kg dose followed by another Mozobil administration [5 mg/kg, I.P.] 48 hours later. We monitored the test mice for lesions relating to skin damage.
Skin damage to the hind leg of C57BL/6 mice was measured using a semi-quantitative scale (TABLE ONE).

hematopoietic stem cells = settings: cited from earlier work
[2] = rapid peak and subsequent clearance; cited from earlier work
C57BL/6 mice [3] = settings: for Median survival: 5 mg/kg I.P.
TGF-beta = settings: 30 days after 30 Gy; 5 mg/kg I.P. on day 7 and 9 post-irradiation; vs 30 Gy alone
Description: (§1) Cytokine concentrations were from multiple samples, n=3 or 4 from single mice: one control, one receiving radiation alone and one receiving combined drug and radiation.

TNF-alpha = settings: 30 days after 30 Gy; 5 mg/kg I.P. on day 7 and 9 post-irradiation; vs 30 Gy alone
Description: as §1

C57BL/6 mice [4] = settings: 6.5 Gy TBI; 5 mg/kg 72 h after the radiation; 12 days after radiation exposure; n=8
mice [5] = settings: total body dose of 8 Gy; Mozobil I.P. 5 mg/kg single injection days later
Description: We exposed mice to radiation, total body dose of 8 Gy at a rate of approximately 1 Gy per minute. Subsequently, days later, we administered Mozobil [I.P.] at 5 mg/kg dose as a single injection. We monitored the test mice for lethality.

mice [6] = settings: data not shown
Balb/c mice = settings: 5 mg/kg i.p. 24 hours after 7 Gy
dogs = settings: cited from earlier work
[7] = dogs after lethal dose of TBI, AMD-3100 mobilized peripheral blood mononuclear cells

c1cc(CN2CCCNCCNCCCNCC2)ccc1CN1CCCNCCNCCCNCC1 [plerixafor]
side effects of single-dose administration (normal donors): very minor | cutaneous injury (skin reaction) (C57BL/6 mice [1]; 25 Gy, to day 60): soon resolved completely | cutaneous injury (skin reaction) (C57BL/6 mice [1]; 30 Gy, approximately day 60): had some hair loss but were otherwise normal | skin damage (lesions) (C57BL/6 mice [1]; legs, 25 or 30 Gy, 5 mg/kg one week later and again 5 mg/kg I.P. 48 hours later): significantly reduced | mobilization of hematopoietic stem cells from the bone marrow to the bloodstream (hematopoietic stem cells; mice, dogs, and humans): strong inducer | G-CSF-induced mobilization of HPCs (hematopoietic stem cells; mouse and human hematopoietic progenitor cells): synergistically augmented | clearance of the drug after injection [2]: ≤ 24 h | Survival at 30 days (C57BL/6 mice [3]; 5 mg/kg I.P. administered 24 h after radiation exposure): 0% | Survival at 30 days (C57BL/6 mice [3]; 5 mg/kg I.P. administered 48 h after radiation exposure): 14% | Survival at 30 days (C57BL/6 mice [3]; 5 mg/kg I.P. administered 72 h after radiation exposure): 69% | Median survival (C57BL/6 mice [3]; 48 h between radiation and drug): 18 days | Median survival (C57BL/6 mice [3]; 72 h between radiation and drug): > 30 days | mitigation from TBI-induced lethality (C57BL/6 mice [3]; given after total body irradiation): significant mitigation | TGF-beta in irradiated skin (TGF-beta): significantly reduced | TNF-alpha in irradiated skin (TNF-alpha): significantly reduced | number of endogenous spleen colonies (mean) (C57BL/6 mice [4]): 47±9 | survival (lethality) (mice [5]): significantly enhanced | Leg contraction (percent leg extension relative to the unirradiated leg) (mice [6]): significantly improved | Median survival (Balb/c mice): 18 days | tolerability (adverse effects) (dogs; dog, in vivo): well tolerated without noticeable adverse effects | Median days to neutrophil recovery (dogs; [7]): 9 days | Median days to platelet recovery (dogs; [7]): 25 days | lethality after total body irradiation (dogs; dogs): mitigates lethality
